Data: patent US8598202B2, “Aryl-hydroxyethylamino-pyrimidines and triazines as modulators of fatty acid amide hydrolase” (Janssen Pharmaceutica NV, priority 2008, dated 2013)
Where a name gives a salt, the structure may show the parent alone. Read-outs that look alike come from different tables or passages of the source.

How the values were obtained:
Rat FAAH-1 = molecular target: T1, Rat FAAH-1 (Rattus norvegicus, UniProt P97612); experiment: Assay Method 2: rat FAAH-1 assay, 3H-anandamide hydrolysis in homogenate of SK-N-MC cells transfected with rat FAAH
T1 sequence (P97612 1-579): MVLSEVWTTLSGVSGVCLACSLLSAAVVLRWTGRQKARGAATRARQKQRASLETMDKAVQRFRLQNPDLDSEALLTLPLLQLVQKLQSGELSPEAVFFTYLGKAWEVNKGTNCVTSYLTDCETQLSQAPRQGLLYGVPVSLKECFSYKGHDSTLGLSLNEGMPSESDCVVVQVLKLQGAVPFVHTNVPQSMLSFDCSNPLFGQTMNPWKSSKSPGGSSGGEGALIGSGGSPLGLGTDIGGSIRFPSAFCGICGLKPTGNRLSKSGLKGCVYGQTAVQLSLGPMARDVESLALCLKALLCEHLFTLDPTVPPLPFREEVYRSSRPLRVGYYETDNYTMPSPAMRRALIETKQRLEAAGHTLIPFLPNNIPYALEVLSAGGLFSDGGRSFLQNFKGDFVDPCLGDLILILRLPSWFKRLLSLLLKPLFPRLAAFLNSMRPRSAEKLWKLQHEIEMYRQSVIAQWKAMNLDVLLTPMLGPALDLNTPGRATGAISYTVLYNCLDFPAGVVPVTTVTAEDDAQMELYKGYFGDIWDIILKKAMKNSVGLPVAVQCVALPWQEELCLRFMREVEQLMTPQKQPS

FAAH = molecular target: T2, FAAH (Homo sapiens, UniProt O00519); experiment: Assay Method 1: FAAH assay, 3H-anandamide hydrolysis in homogenate of T84 cells or SK-N-MC cells transfected with human FAAH
T2 sequence (O00519 1-579): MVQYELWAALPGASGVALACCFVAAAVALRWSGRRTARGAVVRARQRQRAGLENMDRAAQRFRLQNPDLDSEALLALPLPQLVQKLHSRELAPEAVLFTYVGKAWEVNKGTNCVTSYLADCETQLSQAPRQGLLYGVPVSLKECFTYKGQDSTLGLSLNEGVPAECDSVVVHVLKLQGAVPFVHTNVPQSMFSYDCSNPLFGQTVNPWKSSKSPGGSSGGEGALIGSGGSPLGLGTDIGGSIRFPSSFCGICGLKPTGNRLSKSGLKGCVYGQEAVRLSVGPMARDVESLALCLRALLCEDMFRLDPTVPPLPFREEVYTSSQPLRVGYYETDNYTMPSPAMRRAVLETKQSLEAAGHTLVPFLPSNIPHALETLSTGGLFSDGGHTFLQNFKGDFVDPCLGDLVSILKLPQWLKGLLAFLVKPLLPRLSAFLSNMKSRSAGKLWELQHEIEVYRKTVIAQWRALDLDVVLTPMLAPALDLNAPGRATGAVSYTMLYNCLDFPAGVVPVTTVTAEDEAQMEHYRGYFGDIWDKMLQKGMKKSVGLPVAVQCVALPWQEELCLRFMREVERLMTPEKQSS

[1] = read-out: Assay 2 IC50, Table 2, Comparative Examples, rat FAAH-1
[2] = read-out: Assay 1 IC50, Table 2, Comparative Examples, human FAAH

Compound | IC50 (FAAH) | also measured
OC(CNc1cc(-c2c(C(F)(F)F)cccc2C(F)(F)F)ncn1)c1ccccc1 (centres unmarked) [CE1, 2-[6-(2,6-Bis-trifluoromethyl-phenyl)-pyrimidin-4-ylamino]-1-phenyl-ethanol, reference compound] | > 10000 nM | IC50 (Rat FAAH-1): > 10000 nM
CC(=O)Nc1cccc(-c2cc(NCC(O)c3ccccc3)ncn2)c1 (centres unmarked) [CE2, N-{3-[6-(2-Hydroxy-2-phenyl-ethylamino)-pyrimidin-4-yl]-phenyl}-acetamide, reference compound] | – | IC50 (Rat FAAH-1; [1]): > 10000 nM; IC50 (FAAH; [2]): > 10000 nM
OC(CNc1cc(-c2ccccc2)ncn1)c1ccccc1 (centres unmarked) [CE3, 1-Phenyl-2-(6-phenyl-pyrimidin-4-ylamino)-ethanol, reference compound] | – | IC50 (FAAH; [2]): > 10000 nM
OC(CNc1cc(-c2c(F)cccc2F)ncn1)c1ccccc1 (centres unmarked) [CE4, 2-[6-(2,6-Difluoro-phenyl)-pyrimidin-4-ylamino]-1-phenyl-ethanol, reference compound] | – | IC50 (Rat FAAH-1; [1]): > 10000 nM; IC50 (FAAH; [2]): > 10000 nM
OC(CNc1cc(-c2cccs2)ncn1)c1ccccc1 (centres unmarked) [CE5, 1-Phenyl-2-(6-thiophen-2-yl-pyrimidin-4-ylamino)-ethanol, reference compound] | – | IC50 (Rat FAAH-1; [1]): > 10000 nM; IC50 (FAAH; [2]): > 10000 nM
Oc1ccc(-c2cc(NCC(O)c3ccccc3)ncn2)cc1 (centres unmarked) [CE6, 4-[6-(2-Hydroxy-2-phenyl-ethylamino)-pyrimidin-4-yl]-phenol, reference compound] | – | IC50 (Rat FAAH-1; [1]): > 10000 nM; IC50 (FAAH; [2]): 7000 nM
OC(CNc1cc(-c2ccsc2)ncn1)c1ccccc1 (centres unmarked) [CE7, 1-Phenyl-2-(6-thiophen-3-yl-pyrimidin-4-ylamino)-ethanol, reference compound] | – | IC50 (Rat FAAH-1; [1]): > 10000 nM; IC50 (FAAH; [2]): > 10000 nM
Nc1cccc(-c2cc(NCC(O)c3ccccc3)ncn2)c1 (centres unmarked) [CE8, 2-[6-(3-Amino-phenyl)-pyrimidin-4-ylamino]-1-phenyl-ethanol, reference compound] | – | IC50 (FAAH; [2]): > 10000 nM
OC(CNc1cc(-c2ccc(Cl)cc2)ncn1)c1ccccc1 (centres unmarked) [Example 2, 2-{[6-(4-Chlorophenyl)pyrimidin-4-yl]amino}-1-phenylethanol] | 350 nM | IC50 (Rat FAAH-1): 1300 nM
OC(CNc1cc(-c2cccc(Cl)c2)ncn1)c1ccccc1 (centres unmarked) [Example 9, 2-{[6-(3-Chlorophenyl)pyrimidin-4-yl]amino}-1-Phenylethanol] | 467 nM | –
OC(CNc1cc(-c2ccc(Oc3ccccc3)cc2)ncn1)c1ccccc1 (centres unmarked) [Example 13, 1-Phenyl-2-({6-[4-(phenyloxy)phenyl]pyrimidin-4-yl}amino)ethanol] | 35 nM | –
O=Cc1cccc(-c2cc(NC[C@H](O)c3ccccc3)ncn2)c1 [Example 23, 3-(6-{[(2R)-2-Hydroxy-2-phenylethyl]amino}pyrimidin-4-yl)benzaldehyde] | 5000 nM | –
O[C@@H](CNc1cc(-c2cccc(OCC(F)(F)F)c2)ncn1)c1ccccc1 [Example 25, (1R)-1-Phenyl-2-[(6-{3-[(2,2,2-trifluoroethyl)oxy]phenyl}pyrimidin-4-yl)amino]ethanol] | 390 nM | –
CCCCOc1ccc(-c2cc(NC[C@H](O)c3ccccc3)ncn2)cc1 [Example 34, (1R)-2-{[6-(4-Butoxyphenyl)pyrimidin-4-yl]amino}-1-phenylethanol trifluoroacetic acid salt] | 500 nM | –
Cc1cc(-c2cc(NC[C@H](O)c3ccccc3)ncn2)cc(C)c1OC(C)C [Example 52, (1R)-2-({6-[3,5-Dimethyl-4-(1-methylethoxy)phenyl]pyrimidin-4-yl}amino)-1-phenylethanol trifluoroacetic acid salt] | 1400 nM | –
O=S(=O)(NC1CC1)c1ccc(-c2cc(NC[C@H](O)c3ccccc3)ncn2)cc1 [Example 67, N-Cyclopropyl-4-(6-{[(2R)-2-hydroxy-2-phenylethyl]amino}pyrimidin-4-yl)benzenesulfonamide] | 20 nM | –
O[C@@H](CNc1cc(-c2cnn(Cc3ccccc3)c2)ncn1)c1ccccc1 [Example 74, (1R)-2-{[6-(1-Benzyl-1H-pyrazol-4-yl)pyrimidin-4-yl]amino}-1-phenylethanol] | 101 nM | –

Compound | IC50 (FAAH) | also measured
Cc1cc(-c2cc(NC[C@H](O)c3ccccc3)ncn2)cnc1F [Example 75, (1R)-2-{[6-(6-Fluoro-5-methylpyridin-3-yl)pyrimidin-4-yl]amino}-1-phenylethanol] | – | IC50 (Rat FAAH-1): > 10000 nM
CCOc1cccc(-c2cc(NC[C@H](O)c3ccccc3)ncn2)c1 [Example 97, (1R)-2-{[6-(3-Ethoxyphenyl)pyrimidin-4-yl]amino}-1-phenylethanol] | 580 nM | –
CCCOc1cccc(-c2cc(NC[C@H](O)c3ccccc3)ncn2)c1 [Example 98, (1R)-1-Phenyl-2-{[6-(3-propoxyphenyl)pyrimidin-4-yl]amino}ethanol] | 850 nM | –
Oc1ccc(C(O)CNc2cc(-c3ccc(OC(F)(F)F)cc3)ncn2)cc1 (centres unmarked) [Example 110, 4-{1-Hydroxy-2-[(6-{4-[(trifluoromethyl)oxy]phenyl}pyrimidin-4-yl)amino]ethyl}phenol] | 5000 nM | –
OC(CNc1cc(-c2ccc(OC(F)(F)F)cc2)ncn1)c1ccccn1 (centres unmarked) [Example 123, 1-Pyridin-2-yl-2-[(6-{4-[(trifluoromethyl)oxy]phenyl}pyrimidin-4-yl)amino]ethanol] | 700 nM | –
CS(=O)(=O)c1nc(NC[C@H](O)c2ccccc2)cc(-c2ccc(C(F)(F)F)c(Cl)c2)n1 [Example 138, (1R)-2-({6-[3-Chloro-4-(trifluoromethyl)phenyl]-2-(methylsulfonyl)pyrimidin-4-yl}amino)-1-phenylethanol] | 371 nM | –
C[S+]([O-])c1nc(NC[C@H](O)c2ccccc2)cc(-c2ccc(C(F)(F)F)c(Cl)c2)n1 (stereo partly drawn) [Example 139, (1R)-2-({6-[3-Chloro-4-(trifluoromethyl)phenyl]-2-(methylsulfinyl)pyrimidin-4-yl}amino)-1-phenylethanol] | 2000 nM | –
COc1ccc(-c2cc(NCC(O)c3ccccc3)ncn2)cc1 (centres unmarked) [Example 147, 2-({6-[4-(Methyloxy)phenyl]pyrimidin-4-yl}amino)-1-phenylethanol] | 205 nM | –
Cc1cccc(-c2cc(NCC(O)c3ccccc3)ncn2)c1 (centres unmarked) [Example 148, 2-{[6-(3-Methylphenyl)pyrimidin-4-yl]amino}-1-phenylethanol] | 3000 nM | –
OC(CNc1cc(-c2cccc(OC(F)(F)F)c2)ncn1)c1ccccc1 (centres unmarked) [Example 149, 1-Phenyl-2-[(6-{3-[(trifluoromethyl)oxy]phenyl}pyrimidin-4-yl)amino]ethanol] | 412 nM | –
COc1cc(OC(F)(F)F)ccc1-c1cc(NC[C@H](O)c2ccccc2)ncn1 [Example 153, (1R)-2-({6-[2-Methoxy-4-(trifluoromethoxy)phenyl]pyrimidin-4-yl}amino)-1-phenylethanol trifluoroacetic acid salt] | 303 nM | –
CCOc1ccc(-c2cc(NC[C@H](O)c3ccccc3)ncn2)c(C)c1 [Example 154, (1R)-2-{[6-(4-Ethoxy-2-methylphenyl)pyrimidin-4-yl]amino}-1-phenylethanol trifluoroacetic acid salt] | 65 nM | –
O[C@@H](CNc1cc(-c2ccc(C(F)(F)F)c(Cl)c2)nc(N2CCC2)n1)c1ccccc1 [Example 161, (1R)-2-({2-Azetidin-1-yl-6-[3-chloro-4-(trifluoromethyl)phenyl]pyrimidin-4-yl}amino)-1-Phenylethanol trifluoroacetic acid salt] | – | IC50 (Rat FAAH-1): 580 nM
CC(O)(CNc1cc(-c2ccc(C(F)(F)F)c(Cl)c2)ncn1)c1ccccc1 (centres unmarked) [Example 166, 1-({6-[3-Chloro-4-(trifluoromethyl)phenyl]pyrimidin-4-yl}amino)-2-Phenylpropan-2-ol] | 3000 nM | –
COc1ccc(-c2cc(NCC(O)c3ccccc3)ncn2)cc1OC (centres unmarked) [Example 229, 2-[6-(3,4-Dimethoxy-phenyl)-pyrimidin-4-ylamino]-1-phenyl-ethanol] | 408 nM | –
Nc1cccc(-c2cc(NCC(O)c3ccccc3)ncn2)c1 (centres unmarked) [Example 240, 2-[6-(3-Amino-phenyl)-pyrimidin-4-ylamino]-1-phenyl-ethanol] | > 10000 nM | –
OC(CNc1cc(-c2ccccc2)ncn1)c1ccccc1 (centres unmarked) [Example 243, 1-Phenyl-2-(6-phenyl-pyrimidin-4-ylamino)-ethanol] | > 10000 nM | –
